Laboratory results as given in patent US4550186A, “Binuclear copper (II) carboxylates formed from amine-carboxyboranes” (Duke University, priority 1983, dated 1985).

Biological target: T1, ATP Dependent Citrate Lyase (Mus musculus, UniProt Q91V92)
T1 construct: 10% homogenates of CF1 male mouse liver; from tissue; host or cells: CF1 male mouse liver, 10% homogenate
T1 sequence (Q91V92 1-1091): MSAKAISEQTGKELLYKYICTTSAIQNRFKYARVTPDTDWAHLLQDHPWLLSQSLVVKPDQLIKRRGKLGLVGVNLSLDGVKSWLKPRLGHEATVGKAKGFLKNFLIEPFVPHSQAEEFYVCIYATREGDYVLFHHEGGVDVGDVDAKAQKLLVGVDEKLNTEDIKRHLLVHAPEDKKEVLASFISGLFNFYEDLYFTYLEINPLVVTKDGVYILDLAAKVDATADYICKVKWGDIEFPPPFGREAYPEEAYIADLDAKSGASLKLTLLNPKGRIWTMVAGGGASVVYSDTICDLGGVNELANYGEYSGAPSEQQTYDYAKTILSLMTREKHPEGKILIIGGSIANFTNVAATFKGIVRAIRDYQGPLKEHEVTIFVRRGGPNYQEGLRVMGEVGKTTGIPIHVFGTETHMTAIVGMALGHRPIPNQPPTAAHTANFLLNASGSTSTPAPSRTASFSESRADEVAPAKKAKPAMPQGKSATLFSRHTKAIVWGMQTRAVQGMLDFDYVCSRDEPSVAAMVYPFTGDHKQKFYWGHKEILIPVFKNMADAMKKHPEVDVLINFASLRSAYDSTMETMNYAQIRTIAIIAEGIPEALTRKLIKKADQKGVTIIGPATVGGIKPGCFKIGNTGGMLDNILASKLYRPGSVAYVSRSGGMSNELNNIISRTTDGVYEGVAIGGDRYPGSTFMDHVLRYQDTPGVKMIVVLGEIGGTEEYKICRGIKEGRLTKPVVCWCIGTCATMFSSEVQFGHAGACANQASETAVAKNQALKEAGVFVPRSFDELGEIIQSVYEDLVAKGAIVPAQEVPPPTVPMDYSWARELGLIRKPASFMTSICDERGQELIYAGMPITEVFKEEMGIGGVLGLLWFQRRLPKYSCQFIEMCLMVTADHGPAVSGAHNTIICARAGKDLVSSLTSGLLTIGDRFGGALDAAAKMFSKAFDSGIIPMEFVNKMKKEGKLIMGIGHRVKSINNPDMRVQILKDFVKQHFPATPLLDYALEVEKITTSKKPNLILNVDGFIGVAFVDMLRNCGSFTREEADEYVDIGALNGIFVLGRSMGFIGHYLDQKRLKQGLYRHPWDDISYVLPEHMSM
Assay: In vitro liver enzyme study: ATP dependent citrate lyase
Format: biochemical
Conditions: in vitro CF1 liver, 30 min
Description: In vitro enzymatic studies were determined using 10% homogenates of CF1 male mouse liver with 50-200 μM of test drugs. In vivo enzymatic studies were determined using 10% homogenates of liver from CF1 male mice obtained after administering the agents for 16 days at a dose ranging from 2.5-20 mg/kg/day intraperitoneally. The liver homogenates for both in vitro and in vivo studies were prepared in 0.25M sucrose and 0.001M (ethylenedinitrilo)tetraacetic acid. Acetyl coenzyme A synthetase and adenosine triphosphate dependent citrate lyase activities were determined spectrophotometrically at 540 nm as the hydroxylamate of acetyl coenzyme A formed after 30 min at 37° C. Mitochondrial citrate exchange was determined by the procedure of Robinson et al [Eur. J. Biochem., 216, 63 (1970)] using ^14 C-sodium bicarbonate (41 mCi/mmol) incorporated into mitochondrial ^14 C-citrate after isolating rat mitochondria (9000 g×10 min) from the homogenates. The exchanges of the ^14 C-citrate were determined after incubating the mitochondrial fraction which was loaded with labeled citrate and test drugs for 10 min. Then the radioactivity was measured in the mitochondrial and supernantant fractions in scintillation fluid and expressed as a percentage. Cholesterol side chain oxidation was determined by the method of Kritchevsky and Tepper [Artherosclerosis, 18, 93 (1973)] using (26-^14 C) cholesterol (50 mCi/mmol) and mitochondria isolated from rat liver homogenates. […] Fatty acid synthetase activity was determined by the method of Brady et al [J. Biol. Chem., 235, 3093 (1960)] using [2-^14 C] malonyl-coenzyme A (37.5 mCi/mmol) which was incorporated into newly synthesized fatty acids that were extracted with ether and counted. Acyl transferase activity was determined with glycerol-3phosphate [L-2-^3 H(N)] […] HCl and counted. Phosphatidate phosphohydrolase activity was measured as the inorganic phosphate released after 30 min from phosphatidic acid by the method of Mavis et al [J. Lipid Res., 19, 467 (1978)]. […]

## {Cu[(CH3)3 N.BH2 CO2 ]2.(CH3)3 N.BH2 COOH} [Compound I]
50 μM
  ATP Dependent Citrate Lyase: 110 ± 6 Percent Control
100 μM
  ATP Dependent Citrate Lyase: 98 ± 5 Percent Control
200 μM
  ATP Dependent Citrate Lyase: 105 ± 7 Percent Control
